Assays:
SOS1/KRAS-G12D = SOS1/KRAS-G12D (Homo sapiens (Human), UniProt Q07889); assay: SOS1/KRAS-G12D binding inhibition assay (AlphaScreen); conditions: GST-SOS1 and 6*His KRAS-G12D, read-out: KrasG12D/SOS1 binding IC50
Method: Example 22: SOS1/KRAS-G12D Binding Inhibition Assay
SOS1 binding affinity of candidate compounds was measured by monitoring the interaction of SOS1 with KRAS-G12D in the presence of the test compound. Briefly, 5 nM GST tagged SOS1 proteins (final concentration) were pre-incubated with 50 nM 6*His tagged KRAS-G12D proteins (final concentration) in an assay buffer containing 10 mM HEPES, pH 7.4, 150 mM NaCl, 1 mM DTT, 5 mM MgCl2, 0.1% Tween-20, and 0.05% BSA for 30 minutes. The test compounds in 2% DMSO (final concentration) at various concentrations were then added to the reaction mixture and incubated for another 30 minutes at 4° C. 5 ug/ml GSH AlphaScreen donor beads (PerkinElmer, 6765300) and 5 ug/ml nickel chelate (Ni-NTA) AlphaScreen acceptor beads (PerkinElmer, 6760619C) (final concentrations) were then added to the mixture. After an incubation of 2 hours at 4° C., the fluorescent signals were obtained on the EnVision® 2105 Multilabel Plate Reader (PerkinElmer).
Raw AlphaScreen data were converted to a percentage of inhibition (relative to DMSO) using the following equations: • a) For a given test compound concentration X:
Signal (X)=Signal (SOS1 & KRAS-G12D & compound)-Signal (buffer & KRAS-G12D & compound)
Percentage of inhibition at concentration X=[1−Signal (X)/Signal (DMSO)]*100% b)
The IC50 values were determined by nonlinear regression of plots of [inhibitor] vs. percentage of inhibition with variable slope, analyzed using GraphPad Prism 9.

[1] = system: Phospho-ERK1/2 in DLD1 cells; assay: Phospho-ERK1/2 expression inhibition in DLD1 cells; type: cell-based; conditions: Homo sapiens, DLD-1, 4 hours, read-out: DLD1 pERK IC50
Method: Example 23: Phospho-ERK1/2 Expression Inhibition in DLD1 Cells
DLD1 cells were obtained from American Type Culture Collection (ATCC). DLD1 cells were plated in 96-well plates (VWR #10062-900, or Corning #3904) in 90 uL culture medium at a density of 15,000 cells/well in the RPM11640 growth medium containing 10% FBS and 1% Penicillin Streptomycin, and then incubated at 37° C. overnight. The following day, the test compound was administered to the cells by using 1000×x compound stock solution prepared in DMSO at various concentrations. 1000× compound stock solution was first diluted in culturing medium to 10×, then 10 uL compound medium was added to each well in the cell plates. After administration of the compound, the cells were then incubated at 37° C. for 4 hours. Upon completion, the cells were washed with PBS briefly. 150 uL/well of 4% formaldehyde was added and the plates were incubated at room temperature for 20 mins. The cells were washed with PBS briefly, and permeabilized with 150 uL/well of ice cold 100% methanol for 10 mins. The cells were washed with PBS briefly and blocked with 100 uL/well LI-COR blocking buffer for 1 hr at room temperature with gentle shaking. The cells were incubated overnight at 4° C. with 50 uL primary antibody rabbit anti-Phospho-ERK1/2 (1: 500, Cell Signaling, #4370) diluted in Intercept Blocking Buffer (LI-COR, #927-60001) containing 0.1% Tween 20. The next day, the cells were washed with 200 uL PBS containing 0.1% Tween 20, 5×5 mins at room temperature with gentle shaking, and incubated with 50 uL secondary antibody, IRDye® 800CW Goat anti-Rabbit IgG (LI-COR, #926-32211), 1:1000, in LI-COR blocking buffer with 0.2% Tween 20 for 1 hr at room temperature with gentle shaking. The cells were washed with 200 uL PBS containing 0.1% Tween 20, 5×5 mins at room temperature with gentle shaking. The cells were washed with PBS for 5 mins. 100 uL fresh PBS was added to each well and the plates were imaged on a LI-COR Odyssey CLX plate reader.

K562 cells = assay: Cell growth inhibition of K562 cells (CellTiter-Glo); type: cell-based; conditions: Homo sapiens, 120 h, 5 days
Method: Example 24: Cell Growth Inhibition of K562 Cells
K562 cells were obtained from American Type Culture Collection (ATCC). For cell growth assay, K562 cells were seeded in 96-well plates at 1000 cells/well in 90 μl of RPM11640 growth medium containing 10% FBS and 1% Penicillin Streptomycin, and then incubated at 37° C. for 1 hour. The test compound was administered to the cells by using 1000× compound stock solution prepared in DMSO at various concentrations. 1000× compound stock solution was first diluted in culturing medium to 10×, then 10 uL compound medium was added to each well in the cell plates. After administration of the compound, the cells were then incubated at 37° C. for 5 days. Upon completion, the plates were equilibrated at room temperature for approximately 10 minutes. 100 ul of CellTiter-Glo® Reagent (Promega) was added to each well. The plates were then incubated at room temperature for 10 minutes and luminescence was recorded by EnSpire plate reader (PerkinElmer).

Sequence of SOS1/KRAS-G12D (Q07889 564-1049 limits assumed): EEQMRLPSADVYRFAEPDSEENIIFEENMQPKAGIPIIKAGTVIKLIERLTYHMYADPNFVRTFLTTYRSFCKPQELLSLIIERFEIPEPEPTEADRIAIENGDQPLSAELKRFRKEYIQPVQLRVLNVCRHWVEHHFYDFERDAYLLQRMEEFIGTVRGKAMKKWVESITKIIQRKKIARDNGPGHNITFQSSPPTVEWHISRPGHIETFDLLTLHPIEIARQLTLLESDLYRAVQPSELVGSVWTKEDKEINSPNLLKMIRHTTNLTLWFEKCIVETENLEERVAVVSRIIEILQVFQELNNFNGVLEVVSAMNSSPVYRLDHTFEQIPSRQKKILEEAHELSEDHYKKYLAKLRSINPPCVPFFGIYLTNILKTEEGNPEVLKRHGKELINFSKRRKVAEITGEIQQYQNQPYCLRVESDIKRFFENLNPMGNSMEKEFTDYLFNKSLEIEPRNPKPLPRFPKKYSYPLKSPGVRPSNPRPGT

SMILES	IC50 (SOS1/KRAS-G12D) [nM]	IC50 [1] [nM]	GI50 (K562 cells) [nM]
COC1(c2ccc3nccc(N[C@H](C)c4cccc(C(F)(F)F)c4C)c3c2)CCN(C(=O)C(C)C)CC1 [Compound 80, (R)-1-(4-methoxy-4-(4-((1-(2-methyl-3-(trifluoromethyl)phenyl)ethyl)amino)quinolin-6-yl)piperidin-1-yl)-2-methylpropan-1-one]	10 to 100	> 500	100 to 500
C[C@@H](Nc1ccnc2ccc(C3CCNCC3)cc12)c1cccc(C(F)F)c1F [Compound 10, (R)-N-(1-(3-(difluoromethyl)-2-fluorophenyl)ethyl)-6-(piperidin-4-yl)quinolin-4-amine]	10 to 100	> 500	100 to 500
Cc1cc(N[C@H](C)c2cccc(C(F)(F)F)c2C)c2cc(N3CCNCC3)ccc2n1 [Compound 1, (R)-2-methyl-N-(1-(2-methyl-3-(trifluoromethyl)phenyl)ethyl)-6-(piperazin-1-yl)quinolin-4-amine]	10 to 100	> 500	> 500
COC(=O)N1CCC(OC)(c2ccc3nccc(N[C@H](C)c4cccc(C(F)F)c4F)c3c2)CC1 [Compound 100, methyl (R)-4-(4-((1-(3-(difluoromethyl)-2-fluorophenyl)ethyl)amino)quinolin-6-yl)-4-methoxypiperidine-1-carboxylate]	≤ 10	150 to 500	100 to 500
Cc1c([C@@H](C)Nc2ccnc3ccc(N4CCN(c5nccs5)CC4)cc23)cccc1C(F)(F)F [Compound 34, (R)-N-(1-(2-methyl-3-(trifluoromethyl)phenyl)ethyl)-6-(4-(thiazol-2-yl)piperazin-1-yl)quinolin-4-amine]	> 100	> 500	100 to 500
Cc1c([C@@H](C)Nc2ccnc3ccc(N4CCNC[C@@H]4C)cc23)cccc1C(F)(F)F [Compound 60, N-((R)-1-(2-methyl-3-(trifluoromethyl)phenyl)ethyl)-6-((S)-2-methylpiperazin-1-yl)quinolin-4-amine]	10 to 100	> 500	100 to 500
Cc1c([C@@H](C)Nc2ccnc3ccc(N4CC5CCC(C4)N5)cc23)cccc1C(F)(F)F [Compound 59, 6-(3,8-diazabicyclo[3.2.1]octan-3-yl)-N-((R)-1-(2-methyl-3-(trifluoromethyl)phenyl)ethyl)quinolin-4-amine]	10 to 100	> 500	100 to 500
C[C@@H](Nc1ccnc2ccc(N3CC[C@H](O)C3)cc12)c1cccc(C(F)F)c1F [Compound 43, (S)-1-(4-(((R)-1-(3-(difluoromethyl)-2-fluorophenyl)ethyl)amino)quinolin-6-yl)pyrrolidin-3-ol]	≤ 10	150 to 500	100 to 500
Cc1c([C@@H](C)Nc2ccnc3ccc(N4C[C@@H]5C[C@H]4CO5)cc23)cccc1C(F)(F)F [Compound 22, 6-((1S,4S)-2-oxa-5-azabicyclo[2.2.1]heptan-5-yl)-N-((R)-1-(2-methyl-3-(trifluoromethyl)phenyl)ethyl)quinolin-4-amine]	> 100	> 500	> 500
Cc1c([C@@H](C)Nc2ccnc3ccc(N4CCC5(CCN(C)C5=O)CC4)cc23)cccc1C(F)(F)F [Compound 23, (R)-2-methyl-8-(4-((1-(2-methyl-3-(trifluoromethyl)phenyl)ethyl)amino)quinolin-6-yl)-2,8-diazaspiro[4.5]decan-1-one]	10 to 100	> 500	100 to 500
CO[C@]1(c2ccc3nccc(N[C@H](C)c4cccc(C(F)F)c4F)c3c2)CCN(C(=O)C(C)C)C1 [Compound 92, 1-((S)-3-(4-(((R)-1-(3-(difluoromethyl)-2-fluorophenyl)ethyl)amino)quinolin-6-yl)-3-methoxypyrrolidin-1-yl)-2-methylpropan-1-one]	≤ 10	≤ 150	≤ 100
COC1(c2ccc3nccc(N[C@H](C)c4cccc(C(F)(F)F)c4C)c3c2)CCN(C(=O)CF)CC1 [Compound 78, (R)-2-fluoro-1-(4-methoxy-4-(4-((1-(2-methyl-3-(trifluoromethyl)phenyl)ethyl)amino)quinolin-6-yl)piperidin-1-yl)ethan-1-one]	≤ 10	150 to 500	≤ 100
Cc1c([C@@H](C)Nc2ccnc3ccc(N4CCN(C(=O)C5COC5)CC4)cc23)cccc1C(F)(F)F [Compound 29, (R)-(4-(4-((1-(2-methyl-3-(trifluoromethyl)phenyl)ethyl)amino)quinolin-6-yl)piperazin-1-yl)(oxetan-3-yl)methanone]	10 to 100	> 500	100 to 500
CO[C@@]1(c2ccc3nccc(N[C@H](C)c4cccc(C(F)F)c4F)c3c2)CCN(C(=O)N(C)C)C1 [Compound 99, (R)-3-(4-(((R)-1-(3-(difluoromethyl)-2-fluorophenyl)ethyl)amino)quinolin-6-yl)-3-methoxy-N,N-dimethylpyrrolidine-1-carboxamide]	≤ 10	150 to 500	≤ 100
COC(=O)N1CC[C@](OC)(c2ccc3nccc(N[C@H](C)c4cccc(C(F)F)c4F)c3c2)C1 [Compound 89, methyl (S)-3-(4-(((R)-1-(3-(difluoromethyl)-2-fluorophenyl)ethyl)amino)quinolin-6-yl)-3-methoxypyrrolidine-1-carboxylate]	≤ 10	> 500	≤ 100
Cc1c([C@@H](C)Nc2ccnc3ccc(N4CC5CC(C4)O5)cc23)cccc1C(F)(F)F [Compound 19, 6-(6-oxa-3-azabicyclo[3.1.1]heptan-3-yl)-N-((R)-1-(2-methyl-3-(trifluoromethyl)phenyl)ethyl)quinolin-4-amine]	> 100	> 500	100 to 500
C[C@@H](Nc1ccnc2ccc(N3CCN(C(=O)[C@H]4CCOC4)CC3)cc12)c1cccc(C(F)F)c1F [Compound 14, (4-(4-(((R)-1-(3-(difluoromethyl)-2-fluorophenyl)ethyl)amino)quinolin-6-yl)piperazin-1-yl)((S)-tetrahydrofuran-3-yl)methanone]	≤ 10	150 to 500	≤ 100
CC(=O)N1CCC(O)(c2ccc3nccc(N[C@H](C)c4cccc(C(F)F)c4F)c3c2)CC1 [Compound 40, (R)-1-(4-(4-((1-(3-(difluoromethyl)-2-fluorophenyl)ethyl)amino)quinolin-6-yl)-4-hydroxypiperidin-1-yl)ethan-1-one]	≤ 10	150 to 500	≤ 100
CC(C)C(=O)N1CCN(c2ccc3nccc(N[C@H](C)c4cccc(C(F)F)c4F)c3c2)CC1 [Compound 17, (R)-1-(4-(4-((1-(3-(difluoromethyl)-2-fluorophenyl)ethyl)amino)quinolin-6-yl)piperazin-1-yl)-2-methylpropan-1-one]	≤ 10	≤ 150	100 to 500
